Measurements taken from the supplement of paper PMC10307832.

How the values were obtained:
Assay in all cases: relative viability (nuclei count vs DMSO), 5 days (fraction); higher = more cells survive
Masitinib + Alpelisib = compound: Cc1ccc(NC(=O)c2ccc(CN3CCN(C)CC3)cc2)cc1Nc1nc(-c2cccnc2)cs1 [Masitinib] + Cc1nc(NC(=O)N2CCC[C@H]2C(N)=O)sc1-c1ccnc(C(C)(C)C(F)(F)F)c1 [Alpelisib] (partner 2 µM)
Method in brief: (§1)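 Nuclei were stained with Hoechst during a one-step fixation (final 0.05% Triton X-100, 1% formaldehyde, 1 ug/ml Hoechst) carried out 5 days after dosing, then counted on 4× images. The cells, lung cancer lines in 1536-well plates, had been dosed by pin tool the day after seeding with one drug alone or a fixed anchor-drug dose plus five library-drug doses (not always all listed) in √10 steps. Relative viability is the nuclei count in treated wells divided by that in vehicle wells, and each value is the median of duplicate plates.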

[1] = compound: CC1=CC(=CC=C1)NC2=NC(=CS2)C3=CC=NC=C3 + CS(=O)(=O)CCNCc1ccc(-c2ccc3ncnc(Nc4ccc(OCc5cccc(F)c5)c(Cl)c4)c3c2)o1 [Lapatinib] (partner 2 µM)
Method in brief: as §1

Masitinib + Lapatinib = compound: Cc1ccc(NC(=O)c2ccc(CN3CCN(C)CC3)cc2)cc1Nc1nc(-c2cccnc2)cs1 [Masitinib] + CS(=O)(=O)CCNCc1ccc(-c2ccc3ncnc(Nc4ccc(OCc5cccc(F)c5)c(Cl)c4)c3c2)o1 [Lapatinib] (partner 2 µM)
Method in brief: as §1

[2] = compound: CC1=CC(=CC=C1)NC2=NC(=CS2)C3=CC=NC=C3 + CS(=O)(=O)N1CCN(Cc2cc3nc(-c4cccc5[nH]ncc45)nc(N4CCOCC4)c3s2)CC1 [Pictilisib] (partner 1 µM)
Method in brief: as §1

| Cell Line | relative viability (Masitinib + Alpelisib; first compound 0.01 µM) | relative viability (Masitinib + Alpelisib; first compound 0.03162 µM) | relative viability (Masitinib + Alpelisib; first compound 0.1 µM) | relative viability (Masitinib + Alpelisib; first compound 0.3162 µM) | relative viability (Masitinib + Alpelisib; first compound 1 µM) | relative viability ([1]; first compound 0.253 µM) | relative viability ([1]; first compound 0.8 µM) | relative viability ([1]; first compound 2.53 µM) | relative viability ([1]; first compound 8 µM) | relative viability (Masitinib + Lapatinib; first compound 0.01 µM) | relative viability (Masitinib + Lapatinib; first compound 0.03162 µM) | relative viability (Masitinib + Lapatinib; first compound 0.1 µM) | relative viability (Masitinib + Lapatinib; first compound 0.3162 µM) | relative viability (Masitinib + Lapatinib; first compound 1 µM) | relative viability ([2]; first compound 0.253 µM) | relative viability ([2]; first compound 0.8 µM) | relative viability ([2]; first compound 2.53 µM) | relative viability ([2]; first compound 8 µM) | relative viability ([1]; first compound 0.08 µM) | relative viability ([2]; first compound 0.08 µM) |
| --- | --- | --- | --- | --- | --- | --- | --- | --- | --- | --- | --- | --- | --- | --- | --- | --- | --- | --- | --- | --- |
| LU99A | 0.554 | 0.544 | 0.549 | 0.547 | 0.449 | 1.02 | 1.01 | 0.903 | 0.868 | 0.953 | 1.1 | 1.05 | 1.05 | 0.981 | 0.309 | 0.306 | 0.368 | 0.326 | – | – |
| LXF-289 | 0.886 | 1.01 | 1.03 | 1 | 1.02 | 0.93 | 0.938 | 0.823 | 0.807 | 0.757 | 0.879 | 0.938 | 0.929 | 0.894 | 0.75 | 0.733 | 0.715 | 0.74 | 0.815 | 0.714 |
| NCI-H1437 | 0.918 | 0.979 | 1.01 | 1.08 | 0.962 | 0.626 | 0.684 | 0.479 | 0.545 | 0.661 | 0.755 | 0.798 | 0.832 | 0.728 | 0.613 | 0.689 | 0.294 | 0.285 | 0.772 | 0.53 |
| HCC-78 | 0.342 | 0.188 | 0.438 | 0.306 | 0.332 | 0.528 | 0.862 | 0.623 | 0.673 | 0.871 | 0.62 | 0.743 | 0.334 | 0.625 | 0.198 | 0.261 | 0.219 | 0.22 | 0.708 | 0.204 |
